Among the data in patent US7408024B2, “Somatostatin antagonists” (The Administrators of the Tulane Educational Fund, priority 2001, dated 2008) are Ki and IC50 values, retold here.

As usually defined, the IC50 is the concentration needed to halve the response being measured. High values mean lower potency, low ones higher potency.

The target of one assay is T1, hsst1 (Homo sapiens, UniProt P30872).
T1 construct: each containing the entire coding region of the full-length receptors; expressed in transfected cells
T1 sequence (P30872 whole entry): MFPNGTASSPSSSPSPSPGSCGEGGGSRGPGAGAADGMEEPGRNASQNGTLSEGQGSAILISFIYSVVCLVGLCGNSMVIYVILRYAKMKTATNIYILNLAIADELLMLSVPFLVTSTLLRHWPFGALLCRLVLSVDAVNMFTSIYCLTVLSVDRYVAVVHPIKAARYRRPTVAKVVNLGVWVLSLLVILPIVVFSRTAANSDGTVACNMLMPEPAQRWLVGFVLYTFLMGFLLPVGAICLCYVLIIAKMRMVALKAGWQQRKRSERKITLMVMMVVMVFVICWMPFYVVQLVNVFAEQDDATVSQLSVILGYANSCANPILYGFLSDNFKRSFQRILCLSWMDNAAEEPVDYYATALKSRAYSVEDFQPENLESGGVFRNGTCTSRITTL
The experiment in a line: Radioligand binding, cloned human sst1 receptor (CHO-K1 membranes). To be noted: [125I]Tyr11-SRIF, CHO-K1 cell membranes; single values = one binding experiment; read-out: K1 ± SEM hsst1. The source says:
(§1) The genomic clones containing the human somatostatin receptors (hsstr1-5) (Yamada, Y., et al. al., Proc. Natl. Acad. Sci. USA. 1992, 89, 251-255; Yasuda, K., et al., J. Biol. Chem. 1992, 267, 20422-20428; Yamada, Y., et al., Mol. Pharmacol. 1992, 42, 2136-2142; Rohrer, L., et al., Proc. Natl. Acad. Sci. USA. 1993, 90, 4196-4200.), were kindly provided by Dr. Graeme I. Bell (University of Chicago). The hsstr1, hsstr2, hsstr3, hsstr4 and hsstr5 cDNAs were isolated as a 1.5-kb PstI-XmnI fragment, 1.7-kb BamHI-HindIII fragment, 2.0-kb NcoI-HindIII fragment, 1.4-kb NheI-NdeI fragment, and a 1.2-kb HindIII-XbaI fragment, respectively, each containing the entire coding region of the full-length receptors. These fragments were independently subdloned into the corresponding restriction endonuclease sites in the mammalian expression vector pCMV5, downstream from the human cytomegalovirus (CMV) promoter, to produce the expression plasmids pCMV5/hsstr1, pCMV5/hsstr2, pCMV5/hsstr3, pCMV5/hsstr4 and pCMV5/hsstr5. For transfection into CHO-K1 cells, a plasmid, pRSV-neo (American Type Culture Collection, Rockville, Md.), carrying the neomycin mammalian cell selectable marker was added.
(§2) Transfections were performed by the calcium phosphate method. CHO-K1 cells are maintained in α-minimum essential medium (α-MEM; Gibco) supplemented with 10% fetal calf serum and transfected with each of the expression plasmids using calcium phosphate precipitation. Clones that had inherited the expression plasmid were selected in α-MEM supplemented with 500 μg mL^−1 of geneticin (G418; Gibco). Independent CHO-K1 clones were picked by glass-ring cloning and expanded in culture in the selective media. Membranes were prepared from the isolated clones and hsstr expression was initially assessed for binding with [^125I]Tyr^11-SRIF and [^125]IMK-678 (for sstr2).
(§3) Cell membranes of the 5 receptor types were obtained from homogenates (Polytron setting 6, 15 sec) of the corresponding CHO-K1 cells, in ice-cold Tris-HCl (50 mM) and centrifuged (39000 g, 10 min×2), with an intermediate resuspension in fresh buffer. The final pellets are resuspended in Tris-HCl (10 mM) for assay. Aliquots of the membranes are incubated (30 min at 37° C.) with 0.05 nM [^125I]Tyr^11-SRIF (types 1,3,4,5) or [^125I]MK-678 (type 2) in 50 mM HEPES (pH 7.4) containing BSA (10 mg mL^−1); MgCl2 (5 mM), Trasylol (200 kIU mL^−1), bacitracin (0.02 mg mL^−1), and phenylmethanesulfonyl fluoride (0.02 mg mL^−1). The final assay volume is 0.3 mL and incubations are terminated by rapid filtration through GF/C filters pre-soaked in 0.3% poly(ethylenimine) using a Brandel rapid filtration module. Each tube and filter is then washed with aliquots of cold buffer (3×5 mL).
(§4) Specific binding is. defined as the total radioligand bound minus that bound in the presence of 1.0 μM SRIF.

The next assay deals with T2, hsst2 (Homo sapiens, UniProt P30874).
T2 construct: each containing the entire coding region of the full-length receptors; expressed in transfected cells
T2 sequence (P30874 whole entry): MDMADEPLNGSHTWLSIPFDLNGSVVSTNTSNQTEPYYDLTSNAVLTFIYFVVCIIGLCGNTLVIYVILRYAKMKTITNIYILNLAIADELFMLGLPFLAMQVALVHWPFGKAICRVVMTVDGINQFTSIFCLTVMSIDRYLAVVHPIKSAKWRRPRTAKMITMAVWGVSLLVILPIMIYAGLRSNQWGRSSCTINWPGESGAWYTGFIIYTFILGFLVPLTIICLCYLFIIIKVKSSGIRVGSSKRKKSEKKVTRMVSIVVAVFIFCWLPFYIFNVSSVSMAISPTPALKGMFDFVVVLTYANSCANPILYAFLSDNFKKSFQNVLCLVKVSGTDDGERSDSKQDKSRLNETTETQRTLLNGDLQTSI
Put plainly: Radioligand binding, cloned human sst2 receptor (CHO-K1 membranes). To be noted: [125I]MK-678, CHO-K1 cell membranes; single values = one binding experiment; read-out: K1 ± SEM hsst2.
Text: as §1, §2, §3, §4

For another assay, the target named is T3, hsst4 (Homo sapiens, UniProt P31391).
T3 construct: each containing the entire coding region of the full-length receptors; expressed in transfected cells
T3 sequence (P31391 whole entry): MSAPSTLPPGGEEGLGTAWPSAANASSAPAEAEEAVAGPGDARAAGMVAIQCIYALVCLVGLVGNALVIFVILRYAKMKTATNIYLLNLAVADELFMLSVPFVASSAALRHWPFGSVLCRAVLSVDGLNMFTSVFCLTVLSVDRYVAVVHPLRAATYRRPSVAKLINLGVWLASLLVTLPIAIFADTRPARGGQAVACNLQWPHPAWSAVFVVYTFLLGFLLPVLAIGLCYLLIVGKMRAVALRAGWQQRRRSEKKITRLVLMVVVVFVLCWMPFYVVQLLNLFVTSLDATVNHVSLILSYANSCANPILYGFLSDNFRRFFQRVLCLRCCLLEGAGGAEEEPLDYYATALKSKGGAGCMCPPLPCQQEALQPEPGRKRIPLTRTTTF
The experiment in a line: Radioligand binding, cloned human sst4 receptor (CHO-K1 membranes). To be noted: [125I]Tyr11-SRIF, CHO-K1 cell membranes; single values = one binding experiment; read-out: K1 ± SEM hsst4.
Text: as §1, §2, §3, §4

Assay [1] relates to SRIF inhibition of GH release in rat anterior pituitary cells. It counts as cell-based. As for the experimental part: Anterior pituitaries from adult male rats were collected and dispersed by a previously described trypsin/DNase method. (Murphy, W. A.; Taylor, J.; Moreau, J.-P. and Coy, D. […] Sigma) and nystatin (10,000 U mL^−1; Gibco). The cells were randomly plated at a density of approximately 200,000 cells/well (Costar cluster 24; Rochester Scientific Co., Rochester, N.Y.). The plated cells were maintained in the above Dulbecco's medium in a humidified atmosphere of 95% air/5% CO2 at 37° C. for 4-6 days. In preparation for a hormone challenge, the cells were washed with medium 199 (Gibco, 3×1 mL). […] Sigma Chemical Co.). […] After 3 h incubation in an air/carbon dioxide atmosphere (95/5%, 3 h at 37° C.), the medium was removed and stored at −20° C. until assayed for hormone content. Growth hormone in media was measured by a standard double antibody RIA using components generously supplied by Dr. A. F. Parlow at the National Hormone and Pituitary Program (NHHP) Torrance, Calif.

In another assay the target is T4, hsst5 (Homo sapiens, UniProt P35346).
T4 construct: each containing the entire coding region of the full-length receptors; expressed in transfected cells
T4 sequence (P35346 whole entry): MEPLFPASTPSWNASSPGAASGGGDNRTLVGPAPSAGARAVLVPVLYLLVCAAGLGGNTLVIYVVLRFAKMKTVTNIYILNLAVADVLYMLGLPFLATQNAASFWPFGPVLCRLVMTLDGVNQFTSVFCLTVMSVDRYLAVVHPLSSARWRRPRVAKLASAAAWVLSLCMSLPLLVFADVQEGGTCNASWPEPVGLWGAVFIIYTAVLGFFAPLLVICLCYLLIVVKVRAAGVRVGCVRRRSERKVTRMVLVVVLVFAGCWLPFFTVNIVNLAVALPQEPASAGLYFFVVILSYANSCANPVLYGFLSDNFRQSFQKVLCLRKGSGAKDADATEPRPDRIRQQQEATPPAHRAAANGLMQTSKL
Put plainly: Radioligand binding, cloned human sst5 receptor (CHO-K1 membranes). The note with it: [125I]Tyr11-SRIF, CHO-K1 cell membranes; single values = one binding experiment; read-out: K1 ± SEM hsst5.
Text: as §1, §2, §3, §4

Another assay concerns the target T5, hsst3 (Homo sapiens, UniProt P32745).
T5 construct: each containing the entire coding region of the full-length receptors; expressed in transfected cells
The experiment in a line: Radioligand binding, cloned human sst3 receptor (CHO-K1 membranes). To be noted: [125I]Tyr11-SRIF, CHO-K1 cell membranes; single values = one binding experiment; read-out: K1 ± SEM hsst3.
Text: as §1, §2, §3, §4

Where a SMILES comes first, the peptide text is derived from it. Bridges are numbered along the chain shown (N, C = ends). [ ]: non-standard residue; d: D form. Phe(4-Cl) = N[C@@H](Cc1ccc(Cl)cc1)C(=O)O; dNMeW = CN[C@H](Cc1c[nH]c2ccccc12)C(=O)O; 2Nal = N[C@@H](Cc1ccc2ccccc2c1)C(=O)O; 3Pal = N[C@@H](Cc1cccnc1)C(=O)O; NMeK = CN[C@@H](CCCCN)C(=O)O

T5 sequence (P32745 whole entry): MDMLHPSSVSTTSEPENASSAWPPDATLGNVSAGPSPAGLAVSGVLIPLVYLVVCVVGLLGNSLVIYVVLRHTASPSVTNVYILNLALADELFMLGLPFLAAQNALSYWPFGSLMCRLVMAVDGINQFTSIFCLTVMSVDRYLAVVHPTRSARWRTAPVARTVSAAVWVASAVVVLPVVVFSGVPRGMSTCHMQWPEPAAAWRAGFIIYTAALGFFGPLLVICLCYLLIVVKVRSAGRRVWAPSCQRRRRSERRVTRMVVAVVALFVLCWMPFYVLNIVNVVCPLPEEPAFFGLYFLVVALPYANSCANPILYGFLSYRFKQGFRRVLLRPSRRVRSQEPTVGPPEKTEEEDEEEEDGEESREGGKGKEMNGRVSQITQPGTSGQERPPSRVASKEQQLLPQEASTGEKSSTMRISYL

Consider `CN[C@@H](Cc1ccc(Cl)cc1)C(=O)N[C@@H]1CSSC[C@@H](C(=O)N[C@@H](Cc2ccc3ccccc3c2)C(N)=O)NC(=O)[C@H]([C@@H](C)O)NC(=O)[C@H](CCCCN)NC(=O)[C@@H](Cc2c[nH]c3ccccc23)NC(=O)[C@H](Cc2cccnc2)NC1=O` [Peptide 1, NmeCpa-cyclo(DCys-3-Pal-DTrp-Lys-Thr-Cys)-2-Nal-NH2], for which the Ki on hsst1 amounted to 1000 nM; at hsst2 it was 36 ± 7.6 nM; at hsst4, 1000 nM; at hsst5, 40.1 ± 18.8 nM; at hsst3, 330 ± 126 nM. Also, it took 7.8 ± 2.7 nM to reach half-maximal inhibition in assay [1] (IC50).
Turning to `C[C@@H](O)[C@@H]1NC(=O)[C@H](CCCCN)N(C)C(=O)[C@@H](Cc2c[nH]c3ccccc23)N(C)C(=O)[C@H](Cc2cccnc2)NC(=O)[C@H](NC(=O)[C@@H](N)Cc2ccc(Cl)cc2)CSSC[C@@H](C(=O)N[C@@H](Cc2ccc3ccccc3c2)C(N)=O)NC1=O` [Peptide 11, Cpa-cyclo(DCys-3-Pal-NMeDTrp-NMeLys-Thr-Cys)-2-Nal-NH2] (H-[Phe(4-Cl)][dC][3Pal][dNMeW][NMeK]TC[2Nal]-NH2; disulfide 2-7), the Ki was 1000 nM on hsst1; 9.33 ± 0.62 nM at hsst2; 1000 nM at hsst4; 112 ± 19 nM on hsst5; 140 ± 10.4 nM at hsst3. For the same molecule, in assay [1], the IC50 worked out at 2.5 ± 0.2 nM.
As to `C[C@@H](O)[C@@H]1NC(=O)[C@H](CCCCN)N(C)C(=O)[C@@H](Cc2c[nH]c3ccccc23)NC(=O)[C@H](Cc2ccc(O)cc2)NC(=O)[C@H](NC(=O)[C@@H](N)Cc2ccc(Cl)cc2)CSSC[C@@H](C(=O)N[C@@H](Cc2ccc3ccccc3c2)C(N)=O)NC1=O` [Peptide 12, Cpa-cyclo(DCys-Tyr-DTrp-NMeLys-Thr-Cys)-2-Nal-NH2] (H-[Phe(4-Cl)][dC]Y[dW][NMeK]TC[2Nal]-NH2; disulfide 2-7), the Ki stood at 1000 nM on hsst1, 5.51 ± 1.85 nM at hsst2, 1000 nM on hsst4 and 115 ± 16.9 nM on hsst3. Half-maximal inhibition in assay [1] (IC50) required 0.53 ± 0.17 nM.
